# According to US20160295854A1, “COMPOSITION AND METHOD FOR EX-VIVO IMMUNOMODULATION AND/OR PRESERVATION OF ORGANS, METHODS AND USE” (UNIAO BRASILEIRA DE EDUCACAO E ASSISTENCIA , MANTENEDORA DA …, priority 2014, published 2016):
# Columns and labels:
# [1] = tested on: donor cells (I-A^b+ or GFP+) in recipient DLN; test: Donor migratory cells screened in the recipient DLN by flow cytometry; assay type: in vivo, mice (Mus musculus)
# CD86 = assay type: cell-based, mice (Mus musculus); conditions: BMDCs treated or not with LPS 24 h, then treated or not with Hsp70 for additional 24 h
# IL-10 = IL-10 production by DCs (real time PCR and CBA); assay type: cell-based, mice (Mus musculus)
substance,measurement,setting,value
"Hsp70: recombinant Mycobacterium tuberculosis Hsp70 (DnaK) produced in Escherichia coli BL21, LPS removed",MHC II levels in DCs CD103+ migrating from the graft to the recipient DLN (FIG. 9 B),[1]; 24 h or 96 h after transplantation,significant reduction of MHC II levels
same,CD80 and CD86 levels of donor DCs (FIG. 6 C),"[1]; 24 h or 96 h after transplantation, vs OVA",reduced levels of CD80 and CD86
same,CCR7 expression in migratory donor DCs,"[1]; 24 hours after transplantation, vs OVA",upper levels of CCR7
same,CCR7 expression in migratory donor DCs,"[1]; four days after transplantation, vs OVA",did not differ
same,"MHC II expression in donors DCs in recipient DLN (FIG. 6 A, B)","[1]; graft treated by immersion, vs OVA",MHC II expression reduction
same,donor cells (I-A^b+ or GFP+) in the recipient DLN,"[1]; one and four days after transplantation, vs OVA",not noted any difference
same,percentage of CD11c+ CD86^hi cells (FIG. 5),CD86,revert partially
same,"IL-10 production, mRNA and protein level (FIG. 11 A)","IL-10; DCs isolated from mice lymph nodes, 24 h",induce the IL-10 production
same,"IL-10 mRNA and protein in DCs TLR2 KO (FIG. 12 A, B)",IL-10; TLR2 KO compared with DCs WT,significant reduction of the mRNA expression
